Assay results taken from paper PMC12520410, “A FtsZ inhibitor-acinetobactin conjugate with enhanced cellular uptake in Acinetobacter baumannii acts synergistically in combination with PBP3-targeting antibiotics” (PLOS One, 2025).

Columns and labels:
Type in all cases: binding
[1] = target: T1, AbFtsZ (A. baumannii FtsZ) (Acinetobacter baumannii, UniProt V5V8B6); assay: fluorescence anisotropy titration of RUP2 with purified AbFtsZ
BauA = BauA (Acinetobacter baumannii, UniProt Q76HJ9); assay: fluorescence anisotropy titration of the RUP7_2-Fe3+ complex with purified BauA
[2] = target: T1, AbFtsZ (A. baumannii FtsZ); assay: fluorescence anisotropy titration; also inhibits GTP-dependent polymerization (light scattering)

T1 sequence (V5V8B6 entry or part of it): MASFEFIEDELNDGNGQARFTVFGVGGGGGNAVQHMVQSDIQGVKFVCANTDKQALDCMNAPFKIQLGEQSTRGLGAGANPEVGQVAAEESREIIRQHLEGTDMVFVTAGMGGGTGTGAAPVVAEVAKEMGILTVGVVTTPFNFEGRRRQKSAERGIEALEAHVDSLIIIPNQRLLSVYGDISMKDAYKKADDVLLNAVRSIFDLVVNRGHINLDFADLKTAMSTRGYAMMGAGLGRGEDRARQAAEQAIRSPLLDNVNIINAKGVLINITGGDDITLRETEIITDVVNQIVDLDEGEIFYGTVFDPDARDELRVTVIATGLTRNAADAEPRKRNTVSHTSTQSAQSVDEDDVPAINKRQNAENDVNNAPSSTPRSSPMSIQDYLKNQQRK
BauA, sequence (Q76HJ9 entry or part of it): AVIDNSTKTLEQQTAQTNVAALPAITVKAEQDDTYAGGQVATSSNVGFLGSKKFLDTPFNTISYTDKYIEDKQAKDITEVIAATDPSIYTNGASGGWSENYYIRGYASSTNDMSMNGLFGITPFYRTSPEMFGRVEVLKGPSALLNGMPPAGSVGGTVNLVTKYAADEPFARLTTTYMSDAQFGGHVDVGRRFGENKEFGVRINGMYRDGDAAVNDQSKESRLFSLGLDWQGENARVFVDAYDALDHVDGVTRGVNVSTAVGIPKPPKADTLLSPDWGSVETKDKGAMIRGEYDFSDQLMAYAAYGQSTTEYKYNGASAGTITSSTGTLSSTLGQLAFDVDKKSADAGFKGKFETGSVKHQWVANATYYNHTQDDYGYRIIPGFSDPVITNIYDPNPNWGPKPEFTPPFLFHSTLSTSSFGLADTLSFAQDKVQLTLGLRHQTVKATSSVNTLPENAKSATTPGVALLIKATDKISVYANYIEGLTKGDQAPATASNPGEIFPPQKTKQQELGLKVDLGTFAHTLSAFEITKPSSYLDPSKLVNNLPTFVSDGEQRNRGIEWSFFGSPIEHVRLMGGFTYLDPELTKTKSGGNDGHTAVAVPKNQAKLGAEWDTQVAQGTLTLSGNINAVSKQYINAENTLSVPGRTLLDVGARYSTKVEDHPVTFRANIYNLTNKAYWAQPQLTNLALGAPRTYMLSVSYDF

SMILES	Kd [1] [nM]	Kd (BauA) [nM]	Kd [2] [µM]
NC(=O)c1c(F)ccc(OC(CCO)c2nc(-c3ccc(C(F)(F)F)cc3)c(Br)o2)c1F (stereo not drawn) [RUP2]	230 ± 90	–	–
C[C@@H]1ON(CCc2cn(CCC(Oc3ccc(F)c(C(N)=O)c3F)c3nc(-c4ccc(C(F)(F)F)cc4)c(Br)o3)cn2)C(=O)[C@H]1NC(=O)c1cccc(O)c1O (stereo partly drawn) [RUP7]	–	1800 ± 400	26.5 ± 3.7
